Source: PMC5104480 (PLoS ONE, 2016)

Legend:
[1] = biological target: T1, UGT1A1 (Homo sapiens, UniProt P22309); experiment: Glucuronidation kinetics by human expressed UGT1A1; format: in vitro ADME
T1 construct: purchased BD Biosciences (Woburn, MA, USA)
T1 sequence (P22309 26-533): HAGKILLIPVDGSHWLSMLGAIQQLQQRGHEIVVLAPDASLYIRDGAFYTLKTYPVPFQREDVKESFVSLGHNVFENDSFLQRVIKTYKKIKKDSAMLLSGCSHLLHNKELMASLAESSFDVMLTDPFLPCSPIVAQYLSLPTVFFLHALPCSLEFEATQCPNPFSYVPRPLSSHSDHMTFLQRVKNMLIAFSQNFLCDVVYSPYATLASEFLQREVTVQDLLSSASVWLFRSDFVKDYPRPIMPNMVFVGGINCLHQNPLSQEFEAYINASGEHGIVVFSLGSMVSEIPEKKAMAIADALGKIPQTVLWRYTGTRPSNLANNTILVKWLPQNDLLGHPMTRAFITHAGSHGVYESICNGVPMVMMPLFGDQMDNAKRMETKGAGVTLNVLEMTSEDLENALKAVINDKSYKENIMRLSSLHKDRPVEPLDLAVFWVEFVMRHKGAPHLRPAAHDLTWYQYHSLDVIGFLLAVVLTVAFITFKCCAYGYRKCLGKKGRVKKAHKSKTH
Method: (§1) All metabolism studies in vitro were approved by the First Hospital Affiliated to Shihezi University Research Ethics Committee. The glucuronidation assay was performed as described in previous publications. […] The incubation volumes were 120 μL, and the total organic solvent content was 1%. […] The reactions were initiated by adding UDPGA (3.5 mM) at 37°C and then allowed to stand for 30 min in a water bath. These reactions were terminated by adding 60 μL ice-cold acetonitrile containing the IS (25 nM tilianin). […] All experiments were performed in triplicate. The enzyme kinetic parameters were obtained by fitting kinetic models to the experimental data using GraphPad Prism version 5.04 for Windows (GraphPad Software Inc., San Diego, CA, USA). The best model was selected based on visual inspection of the Eadie-Hofstee plots, the calculated r^2 values, and corrected Akaike’s information criterion. The HLMs or human expressed UGT enzymes were employed for kinetic studies at concentrations ranging from 0.0021 mg/mL to 0.0053 mg/mL. The rates of the glucuronidation were fitted to the following equations: V = Cmetabolite/t×Cprotein Where V (nmol/mg/min) is the rates of the glucuronidation, Cmetabolite (μM) and Cprotein (mg/mL) respectively are the concentration of the metabolite and the reaction protein, t (min) is the reaction time. Model selection was based on visual inspection of Eadie—Hofstee plots and it was reported in our previous study. In brief, if the Eadie—Hofstee plot was linear, formation rates (V) of glucuronides at different substrate concentrations (C) were fitted to the standard Eq (1): V = Vmax×C/Km+C (1) where Km is the Michaelis-Menten constant and Vmax is the maximum rate of glucuronidation. The intrinsic clearance (CLint) was derived by Vmax/Km. […] The intrinsic clearance (CLint) was derived by Vmax1/Km1.

[2] = biological target: T2, BCRP (Homo sapiens, UniProt Q9UNQ0); experiment: Effect of BCRP inhibitor Ko143 on glucuronide excretion in HeLa—UGT1A9 cells; format: cell-based
T2 construct: endogenous in cells; host or cells: HeLa cells stably transfected with UGT1A9 (from Dr. Ming Hu, University of Houston)
T2 sequence (Q9UNQ0 1-655): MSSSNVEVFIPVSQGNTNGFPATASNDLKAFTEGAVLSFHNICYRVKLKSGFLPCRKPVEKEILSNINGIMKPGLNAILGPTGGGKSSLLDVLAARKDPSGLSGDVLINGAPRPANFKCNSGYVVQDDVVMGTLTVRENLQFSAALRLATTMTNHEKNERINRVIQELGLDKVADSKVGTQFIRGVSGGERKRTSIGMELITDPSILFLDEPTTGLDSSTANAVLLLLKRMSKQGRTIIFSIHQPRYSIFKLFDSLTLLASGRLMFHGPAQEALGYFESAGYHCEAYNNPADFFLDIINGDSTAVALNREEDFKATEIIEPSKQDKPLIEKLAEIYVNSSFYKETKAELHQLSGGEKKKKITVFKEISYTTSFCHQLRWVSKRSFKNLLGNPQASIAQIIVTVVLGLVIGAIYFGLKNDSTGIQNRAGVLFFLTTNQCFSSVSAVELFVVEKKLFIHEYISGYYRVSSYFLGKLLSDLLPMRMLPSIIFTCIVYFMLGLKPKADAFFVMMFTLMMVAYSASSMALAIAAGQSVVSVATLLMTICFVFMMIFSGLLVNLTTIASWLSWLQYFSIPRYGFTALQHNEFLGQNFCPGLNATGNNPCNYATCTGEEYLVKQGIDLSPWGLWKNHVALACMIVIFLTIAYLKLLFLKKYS
Method: (§2) The excretion rates, glucuronides intracellular, Glucuronides excretion, the clearance of efflux transporter (CL) and the fraction of the metabolized dose (fmet) experiments were calculated as described in detail previously.

[3] = tested on: HeLa—UGT1A9 cells; experiment: Glucuronide excretion at different substrate concentrations in HeLa—UGT1A9 cells; format: cell-based; conditions: for substrate concentration at which the excretion rate reached a peak: diosmetin or chrysoeriol 1.25-40 μM
Method: as §2

[4] = tested on: human liver microsomes (HLMs); experiment: Glucuronidation kinetics of diosmetin and chrysoeriol by HLMs; format: in vitro ADME; conditions: for Kinetic profile of glucuronide formation: Eadie—Hofstee plots; for Km / Vmax: formation of the named glucuronide from diosmetin or chrysoeriol
Method: as §1

[5] = as above; format: in vitro ADME, human; conditions: human, liver microsomes, pH 7.4, Vmax/Km, formation of the named glucuronide
Method: as §1

[6] = biological target: T3, UGT1A9 (Homo sapiens, UniProt O60656); experiment: Glucuronidation by human expressed UGT1A9 (screening and kinetics); format: in vitro ADME; conditions: for Kinetic profile of glucuronide formation: Eadie—Hofstee plots; for microsomal CLint: human, expressed (recombinant) human UGT1A9, pH 7.4, Vmax/Km; for Vmax: substrate diosmetin (Dio-3′-G) or chrysoeriol (Chr-7-G)
T3 construct: purchased BD Biosciences (Woburn, MA, USA)
T3 sequence (O60656 26-530): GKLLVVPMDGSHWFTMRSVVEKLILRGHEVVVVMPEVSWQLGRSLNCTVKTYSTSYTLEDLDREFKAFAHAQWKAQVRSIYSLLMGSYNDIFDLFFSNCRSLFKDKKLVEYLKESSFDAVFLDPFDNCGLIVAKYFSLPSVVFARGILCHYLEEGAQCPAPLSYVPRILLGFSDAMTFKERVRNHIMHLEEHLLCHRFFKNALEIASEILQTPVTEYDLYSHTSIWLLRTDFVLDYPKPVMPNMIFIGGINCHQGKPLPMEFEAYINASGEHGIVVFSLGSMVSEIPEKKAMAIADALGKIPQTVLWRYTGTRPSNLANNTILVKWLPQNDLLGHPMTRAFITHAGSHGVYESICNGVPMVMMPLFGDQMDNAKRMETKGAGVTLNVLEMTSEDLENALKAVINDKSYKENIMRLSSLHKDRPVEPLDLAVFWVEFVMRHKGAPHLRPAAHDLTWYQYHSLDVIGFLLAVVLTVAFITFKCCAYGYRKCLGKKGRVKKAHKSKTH
Method: as §1, with “Vmax1/Km1. The method of this study as described in detail previously. […] The incubation conditions were as follows: protein concentration: 0.0053 mg/mL; temperature of water: 37°C; shaker speed: 50 rpm; reaction time: 30 min. After incubation, all samples were pretreated as described above and analyzed by UHPLC—MS/MS.” for “Vmax1/Km1.”

[7] = biological target: T4, UGT1A6 (Homo sapiens, UniProt P19224); experiment: Glucuronidation by human expressed UGT1A6 (screening and kinetics); format: in vitro ADME
T4 construct: purchased BD Biosciences (Woburn, MA, USA)
T4 sequence (P19224 27-532): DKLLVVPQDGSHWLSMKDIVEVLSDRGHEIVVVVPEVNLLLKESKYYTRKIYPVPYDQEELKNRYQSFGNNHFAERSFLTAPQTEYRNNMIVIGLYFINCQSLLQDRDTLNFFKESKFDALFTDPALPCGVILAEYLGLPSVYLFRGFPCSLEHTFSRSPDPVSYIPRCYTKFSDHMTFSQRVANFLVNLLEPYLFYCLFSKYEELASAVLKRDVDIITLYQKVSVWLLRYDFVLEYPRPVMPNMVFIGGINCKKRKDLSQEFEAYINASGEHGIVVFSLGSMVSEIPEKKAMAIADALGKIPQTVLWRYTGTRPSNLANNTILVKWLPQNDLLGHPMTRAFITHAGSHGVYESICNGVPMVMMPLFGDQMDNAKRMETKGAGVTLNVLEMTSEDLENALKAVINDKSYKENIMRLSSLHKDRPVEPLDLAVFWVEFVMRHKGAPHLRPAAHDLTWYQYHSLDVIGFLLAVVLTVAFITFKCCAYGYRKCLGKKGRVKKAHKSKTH
Method: as §1, with “Vmax1/Km1. The method of this study as described in detail previously. […] After incubation, all samples were pretreated as described above and analyzed by UHPLC—MS/MS.” for “Vmax1/Km1.”

[8] = 5 μM Ko143, 2.5 μM diosmetin or chrysoeriol
[9] = 10 μM Ko143, 2.5 μM diosmetin or chrysoeriol

Row | microsomal CLint ([1]; human, expressed (recombinant) human UGT1A1, pH 7.4, Vmax/Km) [µL/min/mg] | Vmax ([1]; substrate chrysoeriol) [nmol/mg/min] | increase of total intracellular amount of glucuronide compared with the control [2, 8] [fold] | increase of total intracellular amount of glucuronide compared with the control [2, 9] [fold] | substrate concentration at which fmet reached a peak ([3]; chrysoeriol 1.25-40 μM) [µM] | substrate concentration at which the excretion rate reached a peak [3] [µM] | Km [4] [µM] | microsomal CLint [5] [µL/min/mg] | microsomal CLint [6] [µL/min/mg] | Vmax [6] [nmol/mg/min] | microsomal CLint ([7]; human, expressed (recombinant) human UGT1A6, pH 7.4, Vmax/Km) [µL/min/mg] | Vmax ([7]; substrate diosmetin) [nmol/mg/min] | SMILES | Kinetic profile of glucuronide formation ([1]; Eadie—Hofstee plots) | Kinetic profile of glucuronide formation [4] | Vmax [4] [nmol/mg/min] | Kinetic profile of glucuronide formation [6] | Kinetic profile of glucuronide formation ([7]; Eadie—Hofstee plots)
1 | 2260 | 0.63 ± 0.06 | 1.3 | 1.8 | 2.5 | 2.5 | 0.15 ± 0.03 | 1270 | – | – | – | – | COc1cc(-c2cc(=O)c3c(O)cc(O)cc3o2)ccc1O[C@@H]1O[C@H](C(=O)O)[C@@H](O)[C@H](O)[C@H]1O [Chr-4′-G, chrysoeriol-4′-O-glucuronide] | substrate inhibition kinetic characteristics | substrate inhibition profiles | 0.20 ± 0.01 | – | –
2 | – | – | 1.3 | 1.7 | – | 2.5 | 3.83 ± 0.55 | 40 | 480 | 0.12 ± 0.01 | – | – | COc1cc(-c2cc(=O)c3c(O)cc(O[C@@H]4O[C@H](C(=O)O)[C@@H](O)[C@H](O)[C@H]4O)cc3o2)ccc1O [Chr-7-G, chrysoeriol-7-O-glucuronide] | – | classic Michaelis—Menten kinetics | 0.15 ± 0.01 | classic Michaelis-Menten kinetic characteristics | –
3 | – | – | 1.3 | 1.8 | – | 2.5 | 0.19 ± 0.02 | 6250 | 9520 | 4.27 ± 0.13 | – | – | COc1ccc(-c2cc(=O)c3c(O)cc(O)cc3o2)cc1O[C@@H]1O[C@H](C(=O)O)[C@@H](O)[C@H](O)[C@H]1O [Dio-3′-G, diosmetin-3′-O-glucuronide] | – | classic Michaelis—Menten kinetics | 1.16 ± 0.03 | classic Michaelis-Menten kinetic characteristics | –
4 | – | – | 1.1 | 1.5 | – | 10 | 4.66 ± 0.72 | 130 | – | – | 300 | 0.92 ± 0.06 | COc1ccc(-c2cc(=O)c3c(O)cc(O[C@@H]4O[C@H](C(=O)O)[C@@H](O)[C@H](O)[C@H]4O)cc3o2)cc1O [Dio-7-G, Diosmetin-7-O-glucuronide] | – | substrate inhibition profiles | 0.61 ± 0.05 | – | substrate inhibition kinetic characteristics
